# Reference: patent US20230085307A1, “PYRIDAZINONE COMPOUND AND HERBICIDE” (NISSAN CHEMICAL CORPORATION, priority 2019, published 2023)
# Legend:
# barnyard grass [1] = assay: Test Example 4: herbicidal effect by soil treatment (Table 19, symbol H); type: in vivo, barnyard grass (Echinochloa crus-galli); settings: amount of applied herbicide 320 g/ha
# Procedure, shortened: (§1)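 Soil-surface application: an emulsion agent diluted with water to the predetermined dose is sprayed uniformly over seeds lying under roughly 1.5 cm of sterilized diluvial soil. Boxes stay in a greenhouse at 25° C. to 30° C. Three weeks later, each species is graded on previously defined criteria.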
# velvetleaf [2] = assay: Test Example 5: herbicidal effect by foliage application, plastic box (Table 20, symbol M); type: in vivo, velvetleaf (Abutilon theophrasti); settings: 320 g/ha, foliage application after 14-day growth, evaluated three weeks after application
# Procedure, shortened: (§2)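 Sow seeds spot-wise in sterilized diluvial soil; cover with ~1.5 cm soil. Grow 14 days in greenhouse, 25° C. to 30° C. Spray foliage with emulsion diluted to predetermined amount. Rate effect after 3 weeks.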
# Italian ryegrass [3] = assay: Test Example 4: herbicidal effect by soil treatment (Table 19, symbol K); type: in vivo, Italian ryegrass (Lolium multiflorum); settings: amount of applied herbicide 320 g/ha
# Procedure, shortened: as §1
# persian speedwell [4] = assay: Test Example 5: herbicidal effect by foliage application, plastic box (Table 20, symbol R); type: in vivo, Persian speedwell (Veronica persica); settings: 320 g/ha, foliage application after 14-day growth, evaluated three weeks after application
# Procedure, shortened: as §2
# windgrass [5] = assay: Test Example 4: herbicidal effect by soil treatment (Table 19, symbol L); type: in vivo, windgrass (Apera spica-venti); settings: amount of applied herbicide 320 g/ha
# Procedure, shortened: as §1
# persian speedwell [6] = assay: Test Example 4: herbicidal effect by soil treatment (Table 19, symbol R); type: in vivo, Persian speedwell (Veronica persica); settings: amount of applied herbicide 320 g/ha
# Procedure, shortened: as §1
# velvetleaf [7] = assay: Test Example 4: herbicidal effect by soil treatment (Table 19, symbol M); type: in vivo, velvetleaf (Abutilon theophrasti); settings: amount of applied herbicide 320 g/ha
# Procedure, shortened: as §1
# chickweed [8] = assay: Test Example 4: herbicidal effect by soil treatment (Table 19, symbol P); type: in vivo, common chickweed (Stellaria media); settings: amount of applied herbicide 320 g/ha
# Procedure, shortened: as §1
# Japanese bulrush = assay: Test Example 2: herbicidal activity, application during weed generation under submerged conditions (Table 17, symbol B); type: in vivo, Japanese bulrush (Schoenoplectus juncoides); settings: AAH 320 g/ha; application during weed generation, submerged conditions
# Procedure, shortened: (§3)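 Alluvial soil in Wagner pots was flooded to 4 cm depth and sown with the three weeds together; pots were kept in a greenhouse at 25° C. to 30° C. At the one to two leaf stage, an emulsion formulation diluted in water to a set rate went onto the water surface; scored three weeks later.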
# blackgrass [9] = assay: Test Example 5: herbicidal effect by foliage application, plastic box (Table 20, symbol J); type: in vivo, blackgrass (Alopecurus myosuroides); settings: 320 g/ha, foliage application after 14-day growth, evaluated three weeks after application
# Procedure, shortened: as §2
# barnyard grass [10] = assay: Test Example 5: herbicidal effect by foliage application, plastic box (Table 20, symbol H); type: in vivo, barnyard grass (Echinochloa crus-galli); settings: 320 g/ha, foliage application after 14-day growth, evaluated three weeks after application
# Procedure, shortened: as §2
# wild oat [11] = assay: Test Example 4: herbicidal effect by soil treatment (Table 19, symbol I); type: in vivo, wild oat (Avena fatua); settings: amount of applied herbicide 320 g/ha
# Procedure, shortened: as §1
# windgrass [12] = assay: Test Example 5: herbicidal effect by foliage application, plastic box (Table 20, symbol L); type: in vivo, windgrass (Apera spica-venti); settings: 320 g/ha, foliage application after 14-day growth, evaluated three weeks after application
# Procedure, shortened: as §2
# lambsquarters [13] = assay: Test Example 4: herbicidal effect by soil treatment (Table 19, symbol O); type: in vivo, lambsquarters (Chenopodium album); settings: amount of applied herbicide 320 g/ha
# Procedure, shortened: as §1
# blackgrass [14] = assay: Test Example 4: herbicidal effect by soil treatment (Table 19, symbol J); type: in vivo, blackgrass (Alopecurus myosuroides); settings: amount of applied herbicide 320 g/ha
# Procedure, shortened: as §1
# wild oat [15] = assay: Test Example 5: herbicidal effect by foliage application, plastic box (Table 20, symbol I); type: in vivo, wild oat (Avena fatua); settings: 320 g/ha, foliage application after 14-day growth, evaluated three weeks after application
# Procedure, shortened: as §2
# redroot pigweed [16] = assay: Test Example 5: herbicidal effect by foliage application, plastic box (Table 20, symbol N); type: in vivo, redroot pigweed (Amaranthus retroflexus); settings: 320 g/ha, foliage application after 14-day growth, evaluated three weeks after application
# Procedure, shortened: as §2
# green foxtail [17] = assay: Test Example 4: herbicidal effect by soil treatment (Table 19, symbol G); type: in vivo, green foxtail (Setaria viridis); settings: amount of applied herbicide 320 g/ha
# Procedure, shortened: as §1
# Chinese sprangletop = assay: Test Example 3: herbicidal effect by foliage application, Wagner pot (Table 18, symbol D); type: in vivo, chinese sprangletop (Leptochloa chinensis); settings: 320 g/ha
# Procedure, shortened: (§4)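 Plants were sown in alluvial soil held under 0.1–0.5 cm standing water and grown 14 days in a greenhouse at 25–30 °C. An emulsifiable formulation, water-diluted to the set dose, was then sprayed onto the foliage, and effects were scored three weeks later using previously defined criteria.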
# late watergrass = assay: Test Example 2: herbicidal activity, application during weed generation under submerged conditions (Table 17, symbol A); type: in vivo, late watergrass (Echinochloa oryzicola); settings: AAH 320 g/ha; application during weed generation, submerged conditions
# Procedure, shortened: as §3
# lambsquarters [18] = assay: Test Example 5: herbicidal effect by foliage application, plastic box (Table 20, symbol O); type: in vivo, lambsquarters (Chenopodium album); settings: 320 g/ha, foliage application after 14-day growth, evaluated three weeks after application
# Procedure, shortened: as §2
# barnyard grass [19] = assay: Test Example 3: herbicidal effect by foliage application, Wagner pot (Table 18, symbol H); type: in vivo, barnyard grass (Echinochloa crus-galli); settings: 320 g/ha
# Procedure, shortened: as §4
# redroot pigweed [20] = assay: Test Example 4: herbicidal effect by soil treatment (Table 19, symbol N); type: in vivo, redroot pigweed (Amaranthus retroflexus); settings: amount of applied herbicide 320 g/ha
# Procedure, shortened: as §1
# chickweed [21] = assay: Test Example 5: herbicidal effect by foliage application, plastic box (Table 20, symbol P); type: in vivo, common chickweed (Stellaria media); settings: 320 g/ha, foliage application after 14-day growth, evaluated three weeks after application
# Procedure, shortened: as §2
# rice flat sedge = assay: Test Example 3: herbicidal effect by foliage application, Wagner pot (Table 18, symbol E); type: in vivo, rice flat sedge (Cyperus iria); settings: 320 g/ha
# Procedure, shortened: as §4
# green foxtail [22] = assay: Test Example 5: herbicidal effect by foliage application, plastic box (Table 20, symbol G); type: in vivo, green foxtail (Setaria viridis); settings: 320 g/ha, foliage application after 14-day growth, evaluated three weeks after application
# Procedure, shortened: as §2
# southern crabgrass [23] = assay: Test Example 4: herbicidal effect by soil treatment (Table 19, symbol F); type: in vivo, southern crabgrass (Digitaria ciliaris); settings: amount of applied herbicide 320 g/ha
# Procedure, shortened: as §1
# southern crabgrass [24] = assay: Test Example 5: herbicidal effect by foliage application, plastic box (Table 20, symbol F); type: in vivo, southern crabgrass (Digitaria ciliaris); settings: 320 g/ha, foliage application after 14-day growth, evaluated three weeks after application
# Procedure, shortened: as §2
# oval-leafed pondweed = assay: Test Example 2: herbicidal activity, application during weed generation under submerged conditions (Table 17, symbol C); type: in vivo, oval-leafed pondweed (Monochoria vaginalis); settings: AAH 320 g/ha; application during weed generation, submerged conditions
# Procedure, shortened: as §3
# Italian ryegrass [25] = assay: Test Example 5: herbicidal effect by foliage application, plastic box (Table 20, symbol K); type: in vivo, Italian ryegrass (Lolium multiflorum); settings: 320 g/ha, foliage application after 14-day growth, evaluated three weeks after application
# Procedure, shortened: as §2
smiles,measurement,setting,value
CCCC(=O)Oc1c(C)nn(C)c(=O)c1-c1c(-c2ccc(C(F)(F)F)cc2)sc2c(Cl)cccc12 [4-030],"Herbicidal effect by soil treatment, H: barnyard grass",barnyard grass [1],0 (Herbicidal rate of 5% or less (almost no effect))
same,herbicidal effect on M: velvetleaf (evaluation grade 0-5),velvetleaf [2],0 (Herbicidal rate of 5% or less (almost no effect))
same,"Herbicidal effect by soil treatment, K: Italian ryegrass",Italian ryegrass [3],0 (Herbicidal rate of 5% or less (almost no effect))
same,herbicidal effect on R: persian speedwell (evaluation grade 0-5),persian speedwell [4],5 (Herbicidal rate of 90% or more (almost completely withered))
same,"Herbicidal effect by soil treatment, L: windgrass",windgrass [5],0 (Herbicidal rate of 5% or less (almost no effect))
same,"Herbicidal effect by soil treatment, R: persian speedwell",persian speedwell [6],0 (Herbicidal rate of 5% or less (almost no effect))
same,"Herbicidal effect by soil treatment, M: velvetleaf",velvetleaf [7],0 (Herbicidal rate of 5% or less (almost no effect))
same,"Herbicidal effect by soil treatment, P: chickweed",chickweed [8],3 (Herbicidal rate of 40% or more and less than 70%)
same,"herbicidal effect rating, B: Japanese bulrush",Japanese bulrush,3 (Herbicidal rate of 40% or more and less than 70%)
same,herbicidal effect on J: blackgrass (evaluation grade 0-5),blackgrass [9],0 (Herbicidal rate of 5% or less (almost no effect))
same,herbicidal effect on H: barnyard grass (evaluation grade 0-5),barnyard grass [10],0 (Herbicidal rate of 5% or less (almost no effect))
same,"Herbicidal effect by soil treatment, I: wild oat",wild oat [11],0 (Herbicidal rate of 5% or less (almost no effect))
same,herbicidal effect on L: windgrass (evaluation grade 0-5),windgrass [12],5 (Herbicidal rate of 90% or more (almost completely withered))
same,"Herbicidal effect by soil treatment, O: lambsquarters",lambsquarters [13],0 (Herbicidal rate of 5% or less (almost no effect))
same,"Herbicidal effect by soil treatment, J: blackgrass",blackgrass [14],0 (Herbicidal rate of 5% or less (almost no effect))
same,herbicidal effect on I: wild oat (evaluation grade 0-5),wild oat [15],3 (Herbicidal rate of 40% or more and less than 70%)
same,herbicidal effect on N: redroot pigweed (evaluation grade 0-5),redroot pigweed [16],0 (Herbicidal rate of 5% or less (almost no effect))
same,"Herbicidal effect by soil treatment, G: green foxtail",green foxtail [17],0 (Herbicidal rate of 5% or less (almost no effect))
same,herbicidal effect on Chinese sprangletop (D),Chinese sprangletop,5 (Herbicidal rate of 90% or more (almost completely withered))
same,"herbicidal effect rating, A: late watergrass",late watergrass,3 (Herbicidal rate of 40% or more and less than 70%)
same,herbicidal effect on O: lambsquarters (evaluation grade 0-5),lambsquarters [18],0 (Herbicidal rate of 5% or less (almost no effect))
same,herbicidal effect on barnyard grass (H),barnyard grass [19],3 (Herbicidal rate of 40% or more and less than 70%)
same,"Herbicidal effect by soil treatment, N: redroot pigweed",redroot pigweed [20],0 (Herbicidal rate of 5% or less (almost no effect))
same,herbicidal effect on P: chickweed (evaluation grade 0-5),chickweed [21],5 (Herbicidal rate of 90% or more (almost completely withered))
same,herbicidal effect on rice flat sedge (E),rice flat sedge,3 (Herbicidal rate of 40% or more and less than 70%)
same,herbicidal effect on G: green foxtail (evaluation grade 0-5),green foxtail [22],0 (Herbicidal rate of 5% or less (almost no effect))
same,"Herbicidal effect by soil treatment, F: southern crabgrass",southern crabgrass [23],0 (Herbicidal rate of 5% or less (almost no effect))
same,herbicidal effect on F: southern crabgrass (evaluation grade 0-5),southern crabgrass [24],0 (Herbicidal rate of 5% or less (almost no effect))
same,"herbicidal effect rating, C: oval-leafed pondweed",oval-leafed pondweed,3 (Herbicidal rate of 40% or more and less than 70%)
same,herbicidal effect on K: Italian ryegrass (evaluation grade 0-5),Italian ryegrass [25],0 (Herbicidal rate of 5% or less (almost no effect))
